Data on 1 sequence can be found in patent publication US20100120690A1, “Polypeptides Having Antimicrobial Activity and Polynucleotides Encoding Same” (Novozymes Adenium Biotech A/S, priority 2005, published 2010).

Test [1] concerns Staphylococcus aureus, MRSA ST5 (2001). Description: MIC, NCCLS/CLSI guidelines (Example 5), strain D. Conditions: average of two independent experiments. Type of test: cell-based. The gist of the method:
(§1)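 MICs of purified plectasin peptides are measured according to NCCLS/CLSI guidance. Each value averages duplicate independent experiments and is given as a category relative to wild-type: 0 above 100%, 1 80-100%, 2 50-80%, 3 below 50%.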

Test [2] concerns Staphylococcus aureus, ATCC 29737. Description: MIC, NCCLS/CLSI guidelines (Example 5), strain C. Format: cell-based. The following applies: average of two independent experiments. The essentials:
(§2)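 Relative MIC category versus wild-type plectasin (0 >100%, 1 80-100%, 2 50-80%, 3 <50%), mean of two experiments. Determined per CLSI broth guidelines with expressed, purified peptides.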

The test system of test [3] is S. aureus. Description: Minimal Inhibitory Concentration, NCCLS guidelines (Example 4). Format: cell-based, Staphylococcus aureus. Conditions: purified peptide. The method, then: The Minimal Inhibitory Concentration (MIC, micrograms/mL) was determined to test for their antimicrobial activity following the NCCLS guidelines (Clinical and Laboratory Standards Institute; formerly known as National Committee for Clinical and Laboratory Standards).

Test [4] deals with Staphylococcus aureus, ATCC 29213. Description: MIC, NCCLS/CLSI guidelines (Example 5), strain A. Format: cell-based. The following applies: average of two independent experiments. The essentials:
as §2

Test [5] concerns Staphylococcus carnosus. Description: TAPS (Trans Acting Peptide System) assay, radial diffusion read-out. Format: cell-based. On the set-up: key: classified as 4>3>2>1; whereas 4 is better than 1; classified as 4>3>2>1; classified as 4>3>2>1; wildtype activity corresponds to 1. The following applies: peptide expressed in E. coli. The essentials:
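Plectasin variants expressed in E. coli origami under 0.1% arabinose induction, released by hot acid hydrolysis (pH ~2.3, 80° C overnight). Hydrolysate tested by radial diffusion in agarose seeded with S. carnosus. Clearing-zone diameter scored 1–4, wildtype set at 1.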

Test [6] deals with Staphylococcus aureus, MRSA ST80 (2003). Description: MIC, NCCLS/CLSI guidelines (Example 5), strain E. Type of test: cell-based. The following applies: average of two independent experiments. The essentials: as §1
For test [7], the system named is M. luteus. Description: Minimal Effective Concentration (MEC) assay. Format: cell-based, Micrococcus luteus. As to the method: Three antimicrobial polypeptides, which are variants of SEQ ID NO: 1, were tested for antimicrobial activity. A Minimal Effective Concentration assay (MEC, expressed as micrograms/mL) against different microorganisms was performed using the three plectasin mutants, Y40YR, N17R and Y25R following the protocol described in the book of Methods in Molecular Biology, Vol. 78, Antibacterial peptide protocol William M. Shafer, Human Press.

Turning to “GFGCNGPWDEDDMQCHNHCKSIKGYKGGYCAKGGFVCKCY (listed as Pseudoplectania nigrella) [wildtype, wildtype plectasin, parent antimicrobial polypeptide, reference compound]”, the “MIC, strain D” value in test [1] is “(15 μg/mL)”. Also, the “Relative MIC, strain D” value in test [1] (relative to wildtype Plectasin) is recorded as 1 (80-100% of Plectasin wildtype MIC). Further, in test [2], the “MIC, strain C” value was “(4 μg/mL)”. For the same sequence, in test [2] (relative to wildtype Plectasin), the “Relative MIC, strain C” value was 1 (80-100% of Plectasin wildtype MIC). Further, in test [3], the “MIC against S. aureus” value is on record as 8 micrograms/mL. Further, in test [4], the “MIC, strain A” value is given as “(8 μg/mL)”. Moreover, the “Relative MIC, strain A” value in test [4] (relative to wildtype Plectasin) was 1 (80-100% of Plectasin wildtype MIC). Further, in test [5], the “Activity (antimicrobial activity, clearing zone size)” value is 1. Further, the “MIC, strain E” value in test [6] is reported as “(22 μg/mL)”. Besides, in test [6] (relative to wildtype Plectasin), the “Relative MIC, strain E” value was 1 (80-100% of Plectasin wildtype MIC). In addition, in test [7], the “MEC against M. luteus” value was found to be 1.89 micrograms/mL.
